# In US10894784B2, “Heteroarylbenzimidazole compounds” (BAYER PHARMA AKTIENGESELLSCHAFT, priority 2015, dated 2021):
# Biological target: TBK1 (Homo sapiens (Human), UniProt Q9UHD2)
# Experiment: TBK1 low ATP kinase assay (in vitro assay 1)
# Format: biochemical
# Details: in vitro assay 1, read-out: TBK1 low ATP kinase assay IC50
# Sequence of TBK1 (Q9UHD2 whole entry): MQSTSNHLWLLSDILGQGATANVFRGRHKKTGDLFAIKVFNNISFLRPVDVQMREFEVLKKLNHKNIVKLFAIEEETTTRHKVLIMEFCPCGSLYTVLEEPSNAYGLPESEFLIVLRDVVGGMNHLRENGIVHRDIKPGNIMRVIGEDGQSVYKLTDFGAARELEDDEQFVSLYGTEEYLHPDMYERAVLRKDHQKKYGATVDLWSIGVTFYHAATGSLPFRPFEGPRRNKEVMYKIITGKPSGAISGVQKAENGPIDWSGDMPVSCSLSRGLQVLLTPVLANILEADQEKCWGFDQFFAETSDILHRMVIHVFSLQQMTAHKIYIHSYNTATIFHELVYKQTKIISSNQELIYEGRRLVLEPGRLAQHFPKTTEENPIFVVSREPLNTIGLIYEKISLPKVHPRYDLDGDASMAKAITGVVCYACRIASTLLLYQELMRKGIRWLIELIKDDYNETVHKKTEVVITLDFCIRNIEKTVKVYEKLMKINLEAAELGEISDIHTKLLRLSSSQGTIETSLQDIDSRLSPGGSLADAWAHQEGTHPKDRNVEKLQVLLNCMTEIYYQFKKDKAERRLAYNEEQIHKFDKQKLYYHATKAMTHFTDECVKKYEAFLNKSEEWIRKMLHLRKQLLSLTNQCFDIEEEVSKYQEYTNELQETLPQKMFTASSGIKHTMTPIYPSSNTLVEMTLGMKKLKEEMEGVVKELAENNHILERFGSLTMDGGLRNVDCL
row,Structure (SMILES),IC50 [nM]
1,"CCOc1nccc(-c2ccc3nc(Nc4cc(CN5CCN(C(=O)CC(F)(F)F)CC5)ccn4)[nH]c3c2)n1 [Example 26.01.03, 1-{4-[(2-{[6-(2-ethoxypyrimidin-4-yl)-1H-benzimidazol-2-yl]amino}pyridin-4-yl)methyl]piperazin-1-yl}-3,3,3-trifluoropropan-1-one]",13
2,"CC(c1ccnc(Nc2nc3ccc(-c4cnn(CC5CCC5)c4)c(Cl)c3[nH]2)c1)N1CCN(C(=O)C2CC2)CC1 (single isomer, unassigned) [Example 75.03, (4-{(1R or 1S)-1-[2-({7-chloro-6-[1-(cyclobutylmethyl)-1H-pyrazol-4-yl]-1H-benzimidazol-2-yl}amino)pyridin-4-yl]ethyl}piperazin-1-yl)(cyclopropyl)methanone]",0.88
3,"Cc1cc(-c2ccc3nc(Nc4cc(C(C)N5CCN(C(=O)OC(C)(C)C)CC5)ccn4)[nH]c3c2Cl)ncn1 (single isomer, unassigned) [Example 98.01, tert-butyl 4-[(1R or 1S)-1-(2-{[7-chloro-6-(6-methylpyrimidin-4-yl)-1H-benzimidazol-2-yl]amino}pyridin-4-yl)ethyl]piperazine-1-carboxylate]",100
4,"CC(C)(C)OC(=O)N1CCN(Cc2ccnc(Nc3nc4ccc(-c5cc(NCCO)ncn5)cc4[nH]3)c2)CC1 [Example 81.01, tert-butyl 4-({2-[(6-{6-[(2-hydroxyethyl)amino]pyrimidin-4-yl}-1H-benzimidazol-2-yl)amino]pyridin-4-yl}methyl)piperazine-1-carboxylate]",13
5,"COc1c(C)ncnc1-c1ccc2nc(Nc3cc(CN4CCN(C(=O)C5CC5)CC4)ccn3)[nH]c2c1 [Example 61.01.02, cyclopropyl{4-[(2-{[6-(5-methoxy-6-methylpyrimidin-4-yl)-1H-benzimidazol-2-yl]amino}pyridin-4-yl)methyl]piperazin-1-yl}methanone]",23
6,"COc1ccncc1-c1ccc2nc(Nc3cc(CN4CCN(C(=O)CC5CC5)CC4)ccn3)[nH]c2c1 [Example 14.02, 2-cyclopropyl-1-{4-[(2-{[6-(4-methoxypyridin-3-yl)-1H-benzimidazol-2-yl]amino}pyridin-4-yl)methyl]piperazin-1-yl}ethanone]",283
7,"Cc1cc(-c2ccc3nc(Nc4cc(C(C)N5CCN(C(=O)CC(F)(F)F)CC5)ccn4)[nH]c3c2F)ncn1 (single isomer, unassigned) [Example 172.02, 3,3,3-trifluoro-1-{4-[(1R or 1S)-1-(2-{[7-fluoro-6-(6-methylpyrimidin-4-yl)-1H-benzimidazol-2-yl]amino}pyridin-4-yl)ethyl)piperazin-1-yl}propan-1-one]",12.1
8,"COc1c(-c2ccc3nc(Nc4cc(C(C)N5CCN(C(=O)C6CC6)CC5)ccn4)[nH]c3c2)ncnc1N(C)C (single isomer, unassigned) [Example 107.02.02, cyclopropyl(4-{(1R or 1S)-1-[2-({6-[6-(dimethylamino)-5-methoxypyrimidin-4-yl]-1H-benzimidazol-2-yl}amino)pyridin-4-yl]ethyl}piperazin-1-yl)methanone]",5.9
9,"Cc1noc(-c2ccc3nc(Nc4cc(CN5C[C@@H](C)N(C(=O)C6CC6)C[C@@H]5C)ccn4)[nH]c3c2)n1 [Example 16.02.04, cyclopropyl{(2R,5S)-2,5-dimethyl-4-[(2-{[6-(3-methyl-1,2,4-oxadiazol-5-yl)-1H-benzimidazol-2-yl]amino}pyridin-4-yl)methyl]piperazin-1-yl}methanone]",268
10,"CC(C)(C)OC(=O)N1CCN(Cc2ccnc(Nc3nc4ccc(-c5ncnc6c5COC6)cc4[nH]3)c2)CC1 [Example 182.01, tert-butyl 4-[(2-{[6-(5,7-dihydrofuro[3,4-d]pyrimidin-4-yl)-1H-benzimidazol-2-yl]amino}pyridin-4-yl)methyl]piperazine-1-carboxylate]",275
11,"CC(C)c1cc(-c2ccc3nc(Nc4cc(CN5CCN(C(=O)CC(F)(F)F)CC5)ccn4)[nH]c3c2)ncn1 [Example 78.01, 3,3,3-trifluoro-1-(4-{[2-({6-[6-(propan-2-yl)pyrimidin-4-yl]-1H-benzimidazol-2-yl}amino)pyridin-4-yl]methyl}piperazin-1-yl)propan-1-one]",22
12,"COc1cnccc1-c1ccc2nc(Nc3cc(CN4CCN(C(=O)C5(C(F)(F)F)CC5)CC4)ccn3)[nH]c2c1 [Example 04.07, {4-[(2-{[6-(3-methoxypyridin-4-yl)-1H-benzimidazol-2-yl]amino}pyridin-4-yl)methyl]piperazin-1-yl}[1-(trifluoromethyl)cyclopropyl]methanone]",10
13,"Cc1nccc(-c2ccc3nc(Nc4cc(C(C)N5CCN(C(=O)CC6CC6)CC5)ccn4)[nH]c3c2)n1 (single isomer, unassigned) [Example 24.05.03.B, 2-cyclopropyl-1-{4-[(1S or 1R)-1-(2-{[6-(2-methylpyrimidin-4-yl)-1H-benzimidazol-2-yl]amino}pyridin-4-yl)ethyl]piperazin-1-yl}ethanone]",13.8
14,"O=C(CC1CC1)N1CCN(Cc2ccnc(Nc3nc4ccc(-c5ccnc(C(F)(F)F)n5)cc4[nH]3)c2)CC1 [Example 27.03, 2-cyclopropyl-1-(4-{[2-({6-[2-(trifluoromethyl)pyrimidin-4-yl]-1H-benzimidazol-2-yl}amino)pyridin-4-yl]methyl}piperazin-1-yl)ethanone]",203
15,"O=C(CC(F)(F)F)N1CCN(Cc2ccnc(Nc3nc4ccc(-c5cc(NCC6CC6)ncn5)cc4[nH]3)c2)CC1 [Example 142.02, 1-[4-({2-[(6-{6-[(cyclopropylmethyl)amino]pyrimidin-4-yl}-1H-benzimidazol-2-yl)amino]pyridin-4-yl}methyl)piperazin-1-yl]-3,3,3-trifluoropropan-1-one]",6.6
16,"COc1ccccc1N1CCN(Cc2ccnc(Nc3nc4ccc(-c5nc(C)no5)cc4[nH]3)c2)CC1 [Example 101.07, N-(4-{[4-(2-methoxyphenyl)piperazin-1-yl]methyl}pyridin-2-yl)-6-(3-methyl-1,2,4-oxadiazol-5-yl)-1H-benzimidazol-2-amine]",170
17,"COc1c(-c2ccc3nc(Nc4cc(CN5CCN(C(=O)C6CC6)CC5)ccn4)[nH]c3c2)ncnc1N(C)C [Example 107.01.02, cyclopropyl(4-{[2-({6-[6-(dimethylamino)-5-methoxypyrimidin-4-yl]-1H-benzimidazol-2-yl}amino)pyridin-4-yl]methyl}piperazin-1-yl)methanone]",16
18,"Cc1noc(-c2ccc3nc(Nc4cc(CN5CCN(C(=O)C6CCC6)C[C@H]5C)ccn4)[nH]c3c2)n1 [Example 16.03.05, cyclobutyl{(3R)-3-methyl-4-[(2-{[6-(3-methyl-1,2,4-oxadiazol-5-yl)-1H-benzimidazol-2-yl]amino}pyridin-4-yl)methyl]piperazin-1-yl}methanone]",84.7
19,"O=C(CC(F)(F)F)N1CCN(Cc2ccnc(Nc3nc4ccc(-c5cncnc5)cc4[nH]3)c2)CC1 [Example 45.01.01, 3,3,3-trifluoro-1-{4-[(2-{[6-(pyrimidin-5-yl)-1H-benzimidazol-2-yl]amino}pyridin-4-yl)methyl]piperazin-1-yl}propan-1-one]",323
20,"CSc1cc(-c2ccc3nc(Nc4cc(CN5CCN(C(=O)C6CC6)CC5)ccn4)[nH]c3c2)ncn1 [Example 95.02, cyclopropyl(4-{[2-({6-[6-(methylsulfanyl)pyrimidin-4-yl]-1H-benzimidazol-2-yl}amino)pyridin-4-yl]methyl}piperazin-1-yl)methanone]",9.5
